Data published in patent publication US7323303B2, “Modified β-lactamases and uses thereof” (priority 2003, dated 2008).

How the values were obtained:
[1] = target: T1, E166Cf (fluorescein-labeled E166C mutant of β-lactamase I) (Bacillus cereus, UniProt P00809, E185C); test: Spectrophotometric substrate hydrolysis, steady-state kinetics; format: biochemical
T1 construct: made in house; host or cells: B. subtilis 1A304 (φ105MU331); then labelled chemically
T1 sequence (P00809 28-306 E185C): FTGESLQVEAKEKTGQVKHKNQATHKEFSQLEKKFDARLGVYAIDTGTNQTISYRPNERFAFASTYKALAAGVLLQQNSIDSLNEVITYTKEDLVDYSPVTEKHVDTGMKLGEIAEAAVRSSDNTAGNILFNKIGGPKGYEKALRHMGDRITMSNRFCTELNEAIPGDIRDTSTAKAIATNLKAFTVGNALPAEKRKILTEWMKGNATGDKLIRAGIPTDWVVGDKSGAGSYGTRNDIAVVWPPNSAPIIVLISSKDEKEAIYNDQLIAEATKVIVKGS
Procedure: The hydrolytic activities of the wild-type β-lactamase I, E166C and E166Cf mutants towards penicillin G, penicillin V and ampicillin (Sigma) were monitored by the spectrophotometric method. The spectrophotometric measurements were performed on a Perkin Elmer Lambda Bio20 UV/Vis spectrometer. Substrate hydrolysis was monitored at a fixed wavelength: 235 nm for ampicillin, 232 nm for penicillin G and penicillin V. The initial rate of substrate hydrolysis occurring within 5 min was determined in duplicate at each of 6 different substrate concentrations in 50 mM potassium phosphate buffer (pH 7.0) at 20° C. The initial rates determined were then treated as described in Reference 5 to calculate the Michaelis constants (Km) and turnover numbers (kcat) using non-linear regression analysis (equation 1):
[formula] where v is the initial rate of substrate hydrolysis, Vmax the maximum rate of reaction, [S] the initial substrate concentration, Km the Michaelis constant and kcat=Vmax/[Enzyme].
The measured steady-state kinetic parameters for hydrolysis of penicillin G, penicillin V and ampicillin by the wild-type β-lactamase I, E166C and E166Cf mutants are summarized in Table 1.
(§1) At high substrate concentration (1.0×10^−5 and 1.0×10^−4 M), the penicillin substrates rapidly occupy the active sites to form the ES complexes, thus switching on the fluorescence of the fluorescein labels instantaneously. […] This can be verified by the fact that the ‘plateau time’ (8 and 22 min for 1.0×10^−5 and 1.0×10^−4 M penicillin G respectively) is consistent with the ‘substrate hydrolysis time’ determined by spectrophotometric assays (7 and 20 min for 1.0×10^−5 and 1.0×10^−4 M penicillin G respectively). When most of the penicillin substrates have been hydrolyzed to carboxylic acids, the fluorescence signal of the labeled enzyme will decline subsequently.

[2] = target: T2, E166Cf enzyme (Bacillus cereus, UniProt P00809, E185C); test: Time-resolved fluorescence of E166Cf enzyme with penicillins and cephalosporins; format: biochemical; conditions: E166Cf 1.2×10^−7 M
T2 construct: made in house; host or cells: B. subtilis 1A304 (φ105MU331); then labelled chemically
T2 sequence (P00809 28-306 E185C): T1 sequence (P00809 28-306 E185C)
Procedure: Fluorescence measurements of the E166Cf enzyme in the presence of penicillin G, penicillin V, ampicillin, cefuroxime, cefoxitin and moxalactam were performed on a Perkin Elmer LS50B spectrofluorometer. For time-resolved fluorescence measurement, excitation and emission wavelengths were set at 494 and 515 nm respectively. Both excitation and emission slit widths were set at 5 nm. All fluorescence measurements were performed at room temperature.
With penicillin G as substrate, the fluorescence signal of the E166Cf enzyme (1.2×10^−7 M) at 515 nm in 50 mM phosphate buffer (pH 7.0) increases as a function of the antibiotic concentration (FIG. 4). The time-resolved fluorescence signals of the E166Cf enzyme at 515 nm were also measured with various concentrations of penicillin G (FIG. 5). At low antibiotic concentration (1.0×10^−7 and 1.0×10^−6 M), the fluorescence intensity of the E166Cf enzyme increases gradually and then declines. At high antibiotic concentration (1.0×10^−5 and 1.0×10^−4 M), the fluorescence signal increases instantaneously and levels off to a plateau. The fluorescence signal stays at the plateau for a certain length of time and then declines afterwards. Similar results were obtained with penicillin V and ampicillin (FIGS. 6 and 7).
With cefuroxime, cefoxitin and moxalactam as substrates, the fluorescence intensities of the E166Cf enzyme (1.2×10^−7 M) at 515 nm in 50 mM phosphate buffer (pH 7.0) also increase as a function of antibiotic concentration (FIGS. 8 to 10).
as §1

[3] = E166Cf, 50 mM potassium phosphate buffer pH 7.0, 20° C.

In the case of CC1(C)S[C@@H]2[C@H](NC(=O)Cc3ccccc3)C(=O)N2[C@H]1C(=O)O [Penicillin G, penicillin G], the “substrate hydrolysis time determined by spectrophotometric assays” value ([1]; 1.0×10^−4 M antibiotic) is reported as 20 min, the “substrate hydrolysis time determined by spectrophotometric assays” value ([1]; 1.0×10^−5 M antibiotic) is reported as 7 min and the Km [1, 3] is reported as 213 ± 11 µM. The kcat [1, 3] was 5.28 ± 0.09 s⁻¹, the “plateau time of fluorescence signal” value ([2]; 1.0×10^−4 M antibiotic) was 22 min and the “plateau time of fluorescence signal” value ([2]; 1.0×10^−5 M antibiotic) was 8 min.
